Test results taken from patent US20240101572A1, “DIHYDROOXADIAZINONE COMPOUND AND PHARMACEUTICAL USE THEREOF” (Japan Tobacco Inc., priority 2022, published 2024).
Where two headings read alike, the source gives them in different places.

Assays:
[1] = molecular target: full-length human PLD1 (Homo sapiens (Human), UniProt Q13393); assay: Evaluation of human PLD1 enzyme inhibitory activity (Amplex Red / choline oxidase fluorescence); type: biochemical
Procedure, shortened: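 Fluorescence read-out couples choline to Amplex Red via choline oxidase and peroxidase after a 60 min room-temperature reaction. Enzyme: FLAG-tagged full-length human PLD1 from Expi293F cells, anti-FLAG purified; substrate diheptanoyl phosphatidylcholine; HEPES pH 7.5 assay buffer with 0.01% NP-40, 0.1% BSA, 5% DMSO final.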

[2] = molecular target: full-length human PLD2 (Homo sapiens (Human), UniProt O14939); assay: Evaluation of human PLD2 enzyme inhibitory activity (Amplex Red / choline oxidase fluorescence); type: biochemical
Procedure, shortened: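 Released choline was read by Amplex Red fluorescence coupled to choline oxidase and HRP after a 60 min room-temperature reaction. Substrate was diheptanoyl phosphatidylcholine, added as a 6 mmol/L solution, and enzyme was FLAG-tagged full-length human PLD2 from Expi293F, added as a 6 nmol/L solution. Buffer was 50 mM HEPES pH 7.5 with 5% final DMSO.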

[3] = full-length human PLD1 enzyme, read-out: PLD1 IC50
[4] = full-length human PLD2 enzyme, read-out: PLD2 IC50
[5] = column 1 of continuation tables 2-12 to 2-14, read-out: human PLD1 enzyme inhibitory activity IC50
[6] = column 2 of continuation tables 2-12 to 2-14, read-out: human PLD2 enzyme inhibitory activity IC50

Chain of full-length human PLD1 (Q13393 other isoform, or with tags, fused parts or gaps): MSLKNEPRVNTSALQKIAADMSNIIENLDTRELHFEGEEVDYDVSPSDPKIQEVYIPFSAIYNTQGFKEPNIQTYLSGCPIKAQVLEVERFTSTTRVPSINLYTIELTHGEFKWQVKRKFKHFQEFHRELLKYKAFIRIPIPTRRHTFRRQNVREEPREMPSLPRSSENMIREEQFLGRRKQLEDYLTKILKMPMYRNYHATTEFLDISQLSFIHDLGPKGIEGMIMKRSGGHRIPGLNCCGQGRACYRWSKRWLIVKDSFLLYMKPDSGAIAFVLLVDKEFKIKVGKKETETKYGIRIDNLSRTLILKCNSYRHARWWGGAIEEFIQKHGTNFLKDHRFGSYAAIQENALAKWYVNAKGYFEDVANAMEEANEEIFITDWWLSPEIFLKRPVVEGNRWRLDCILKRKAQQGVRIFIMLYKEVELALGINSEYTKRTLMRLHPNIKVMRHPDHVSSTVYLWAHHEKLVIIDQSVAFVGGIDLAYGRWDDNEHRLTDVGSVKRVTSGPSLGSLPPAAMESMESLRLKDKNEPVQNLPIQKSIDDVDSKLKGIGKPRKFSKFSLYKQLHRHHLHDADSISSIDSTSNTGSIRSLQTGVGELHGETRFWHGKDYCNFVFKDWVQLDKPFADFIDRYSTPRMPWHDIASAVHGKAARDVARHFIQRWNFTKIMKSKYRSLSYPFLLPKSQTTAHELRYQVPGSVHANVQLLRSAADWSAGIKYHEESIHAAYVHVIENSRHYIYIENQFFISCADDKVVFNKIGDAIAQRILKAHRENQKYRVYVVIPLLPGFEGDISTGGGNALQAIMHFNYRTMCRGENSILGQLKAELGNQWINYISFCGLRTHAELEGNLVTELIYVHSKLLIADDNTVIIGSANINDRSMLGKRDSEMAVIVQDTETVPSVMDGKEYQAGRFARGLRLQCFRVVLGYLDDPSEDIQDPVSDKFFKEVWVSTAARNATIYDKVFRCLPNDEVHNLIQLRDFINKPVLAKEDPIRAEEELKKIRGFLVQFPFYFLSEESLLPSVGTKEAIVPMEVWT
Chain of full-length human PLD2 (O14939 whole entry): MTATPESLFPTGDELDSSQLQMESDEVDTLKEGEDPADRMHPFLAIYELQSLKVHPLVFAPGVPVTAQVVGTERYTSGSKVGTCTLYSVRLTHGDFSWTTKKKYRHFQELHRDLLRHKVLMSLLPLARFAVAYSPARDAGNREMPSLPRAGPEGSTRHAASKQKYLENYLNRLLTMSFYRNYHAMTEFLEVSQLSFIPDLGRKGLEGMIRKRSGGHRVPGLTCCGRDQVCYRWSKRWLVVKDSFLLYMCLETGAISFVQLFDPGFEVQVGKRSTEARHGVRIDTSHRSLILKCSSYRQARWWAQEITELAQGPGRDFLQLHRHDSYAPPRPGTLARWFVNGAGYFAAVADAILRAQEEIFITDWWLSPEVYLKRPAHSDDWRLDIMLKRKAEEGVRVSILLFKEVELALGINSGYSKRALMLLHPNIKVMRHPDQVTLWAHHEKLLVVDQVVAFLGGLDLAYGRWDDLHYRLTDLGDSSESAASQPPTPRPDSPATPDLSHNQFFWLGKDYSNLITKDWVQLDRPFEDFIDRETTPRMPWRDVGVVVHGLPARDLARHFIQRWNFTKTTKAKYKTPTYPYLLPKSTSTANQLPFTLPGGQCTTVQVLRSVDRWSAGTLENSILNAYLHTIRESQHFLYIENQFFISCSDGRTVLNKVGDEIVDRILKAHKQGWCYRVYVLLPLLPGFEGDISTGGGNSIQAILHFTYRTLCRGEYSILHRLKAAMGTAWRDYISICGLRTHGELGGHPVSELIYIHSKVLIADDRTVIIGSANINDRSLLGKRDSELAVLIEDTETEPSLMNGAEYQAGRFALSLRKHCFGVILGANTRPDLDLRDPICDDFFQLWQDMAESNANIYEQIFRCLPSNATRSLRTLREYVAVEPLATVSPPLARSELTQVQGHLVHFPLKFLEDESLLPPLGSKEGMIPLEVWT

| Compound | IC50 [1, 3] [nM] | IC50 [2, 4] [nM] | IC50 [1, 5] [nM] | IC50 [2, 6] [nM] |
| --- | --- | --- | --- | --- |
| CNC(=O)C(=O)N[C@@H](C)C[C@H]1CC[C@]2(CC1)OC(=O)NN=C2c1cn(CC(F)F)nc1I [Example 2-058] | 26 | 66 |  |  |
| CNC(=O)C(=O)N[C@@H](C)CN1CCC2(CC1)OC(=O)NN=C2c1cc(C(=O)N(C)C)ccc1Br [Example 2-038] | 60 | 11 |  |  |
| CNC(=O)C(=O)N[C@@H](C)CN1CCC2(CC1)OC(=O)NN=C2c1cc(C#N)ccc1Br [Example 300] | 38 | < 10 |  |  |
| C[C@@H](C[C@H]1CC[C@]2(CC1)OC(=O)NN=C2c1ccc(F)cc1Br)NC(=O)C1CC1c1ccccc1 (single isomer, unassigned) [Example 38] | 35 | 88 |  |  |
| C[C@@H](CN1CCC2(CC1)OC(=O)NN=C2c1ccc(F)cc1Cl)NC(=O)c1cc(C(F)(F)F)[nH]n1 [Example 100] | 41 | 33 |  |  |
| C[C@@H](C[C@H]1CC[C@]2(CC1)OC(=O)NN=C2c1cc(C(C)(C)O)ccc1Br)NC(=O)C(=O)NC1CC1 [Example 2-045] | 18 | < 10 |  |  |
| CNC(=O)C(=O)N[C@@H](C)C[C@H]1CC[C@]2(CC1)OC(=O)NN=C2c1ccc(F)cc1C1CC1 [Example 64] | 18 | < 10 |  |  |
| CNC(=O)C(=O)NC[C@H](C)N1CCC2(CC1)OC(=O)NN=C2c1ccc(C#N)cc1Br [Example 329] | 51 | < 10 |  |  |
| C[C@@H](CN1CCC2(CC1)OC(=O)NN=C2c1ccc(F)cc1Cl)NC(=O)c1cn(C)nn1 [Example 94] | 68 | 60 |  |  |
| CNC(=O)C(=O)N[C@@H](C)C[C@H]1CC[C@]2(CC1)OC(=O)NN=C2c1ccc(OC(F)(F)F)cc1Br [Example 80] | < 10 | < 10 |  |  |
| CNC(=O)C(=O)N[C@@H](C)C[C@H]1CC[C@]2(CC1)OC(=O)NN=C2c1ccccc1OC(F)(F)F [Example 105] | 27 | 41 |  |  |
| CNC(=O)C(=O)N[C@@H](C)C[C@H]1CC[C@]2(CC1)OC(=O)NN=C2c1cc(C(=O)N2CCC(F)(F)C2)ccc1Br [Example 2-056] | 17 | < 10 |  |  |
| Cc1ccc(C(=O)N[C@@H](C)C[C@H]2CC[C@]3(CC2)OC(=O)NN=C3c2ccc(F)cc2Br)nn1 [Example 252] | 174 | 335 |  |  |
| C[C@@H](C[C@H]1CC[C@]2(CC1)OC(=O)NN=C2c1ccc(OC(F)(F)F)cc1Br)NC(=O)NC1CC1 [Example 195] | 39 | 67 |  |  |
| Cc1cc(C(=O)N[C@@H](C)CN2CCC3(CC2)OC(=O)NN=C3c2cccc(C(F)(F)F)c2Br)[nH]n1 [Example 2-052] | 21 | < 10 |  |  |
| C[C@@H](C[C@H]1CC[C@]2(CC1)OC(=O)NN=C2c1ccc(F)cc1I)NC(=O)NC1CC1 [Example 245] | 40 | 107 |  |  |
| C[C@@H](C[C@H]1CC[C@]2(CC1)OC(=O)NN=C2c1ccc(C#N)cc1Br)NC(=O)N1CCn2nncc2C1 [Example 271] | 18 | < 10 |  |  |
| [2H]C([2H])([C@H](C)NC(=O)c1cnn(C)c1)N1CCC2(CC1)OC(=O)NN=C2c1ccc(F)cc1Br [Example 334] | 26 | < 10 |  |  |
| CNC(=O)C(=O)N[C@@H](C)C[C@H]1CC[C@]2(CC1)OC(=O)NN=C2c1cc(C#N)ccc1Br [Example 198, N^1—((S)-1-(cis-5-(2-bromo-5-cyanophenyl)-2-oxo-1-oxa-3,4-diazaspiro[5.5]undec-4-en-9-yl)propan-2-yl)-N^2-methyloxamide] | 11 | < 10 |  |  |
| [2H]C([2H])([2H])NC(=O)C(=O)N[C@@H](C)C[C@]1(C#N)CC[C@@]2(CC1)OC(=O)NN=C2c1cc(OC(F)(F)F)ccc1Br [Example 2-132] |  |  | 11 | < 10 |
| Cc1cc(F)ccc1C1=NNC(=O)O[C@]12CC[C@@H](C[C@H](C)NC(=O)N1CC[C@@H](c3ccccc3)C1)CC2 [Example 138] | 774 | 1400 |  |  |
| CNC(=O)C(=O)N[C@@H](C)C[C@H]1CC[C@]2(CC1)OC(=O)NN=C2c1cc(F)ccc1Br [Example 157] | < 10 | < 10 |  |  |
| C[C@@H](C[C@H]1CC[C@]2(CC1)OC(=O)NN=C2c1ccc(F)cc1Br)NC(=O)/C=C/CN(C)C [Example 279] | 86 | 44 |  |  |
| C[C@@H](C[C@H]1CC[C@]2(CC1)OC(=O)NN=C2c1cc(C(C)(C)O)ccc1Br)NC(=O)c1cnn(C)c1 [Example 2-027] | 13 | < 10 |  |  |
| CNC(=O)C(=O)N[C@H](C)CN1CCC2(CC1)OC(=O)NN=C2c1ccc(F)cc1Br [Example 2-011] | 2110 | 2940 |  |  |
| CONC(=O)N[C@@H](C)C[C@H]1CC[C@]2(CC1)OC(=O)NN=C2c1ccc(F)cc1I [Example 208] | 45 | 224 |  |  |

| Compound | IC50 [1, 3] [nM] | IC50 [2, 4] [nM] | IC50 [1, 5] [nM] | IC50 [2, 6] [nM] |
| --- | --- | --- | --- | --- |
| C[C@@H](C[C@H]1CC[C@]2(CC1)OC(=O)NN=C2c1ccc(S(C)(=O)=O)cc1Br)NC(=O)c1cc(Cl)no1 [Example 48] | 14 | < 10 |  |  |
| Cc1cc(C(=O)N[C@@H](C)CN2CCC3(CC2)OC(=O)NN=C3c2ccc(S(C)(=O)=O)cc2Cl)[nH]n1 [Example 128] | 186 | 60 |  |  |
| CNC(=O)C(=O)N[C@@H](C)C[C@H]1CC[C@]2(CC1)OC(=O)NN=C2c1cnc(N2CC(C)C2)cc1C [Example 182] | 19 | < 10 |  |  |
| COc1cc(C)c(C2=NNC(=O)O[C@]23CC[C@@H](C[C@H](C)NC(=O)OCc2ccccc2)CC3)cn1 [Example 262] | 15 | < 10 |  |  |
| Cc1cc(C(=O)N[C@@H](C)CN2CCC3(CC2)OC(=O)NN=C3c2ccc(F)cc2Cl)[nH]n1 [Example 93] | 32 | < 10 |  |  |
| Cc1cc(C(=O)N[C@@H](C)C[C@H]2CC[C@]3(CC2)OC(=O)NN=C3c2cccc(Br)c2)[nH]n1 [Example 25] | 108 | 101 |  |  |
| C[C@@H](CN1CCC2(CC1)OC(=O)NN=C2c1ccc(F)cc1Cl)NC(=O)c1cc(Cl)no1 [Example 92] | 26 | 13 |  |  |
| C[C@H](O)C(=O)N[C@@H](C)C[C@H]1CC[C@]2(CC1)OC(=O)NN=C2c1ccc(F)cc1Br [Example 29] | 999 | 1720 |  |  |
| Cc1cc(C(=O)N[C@@H](C)C[C@H]2CC[C@]3(CC2)OC(=O)NN=C3c2ccc(S(C)(=O)=O)cc2Br)[nH]n1 [Example 31] | 24 | < 10 |  |  |
| CNC(=O)C(=O)N[C@@H](C)C[C@H]1CC[C@]2(CC1)OC(=O)NN=C2c1cnc(N2C[C@@H]3C[C@H]2CO3)cc1Cl [Example 244] | 19 | < 10 |  |  |
| CNC(=O)C(=O)N[C@@H](C)C[C@H]1CC[C@]2(CC1)OC(=O)NN=C2c1ccc(S(=O)(=O)C(C)C)cc1Br [Example 66] | 16 | < 10 |  |  |
| Cc1cc(C(=O)N[C@@H](C)CN2CCC3(CC2)OC(=O)NN=C3c2cc(C#N)ccc2Cl)[nH]n1 [Example 2-007] | 28 | < 10 |  |  |
| Cc1cc(F)ccc1C1=NNC(=O)O[C@]12CC[C@@H](C[C@H](C)NC(=O)c1ccc(Cl)cc1F)CC2 [Example 88] | 56 | 65 |  |  |
| Cc1cc(C(=O)N[C@@H](C)C[C@H]2CC[C@]3(CC2)OC(=O)NN=C3c2cnc(N3CCOCC3)cc2C)[nH]n1 [Example 221] | 16 | < 10 |  |  |
| C[C@@H](C[C@H]1CC[C@]2(CC1)OC(=O)NN=C2c1ccc(F)cc1I)NC(=O)C(=O)NC1CC1 [Example 177] | 10 | < 10 |  |  |
| CNC(=O)C(=O)N[C@@H](C)C[C@H]1CC[C@]2(CC1)OC(=O)NN=C2c1cc(OC(F)(F)F)ccc1Br [Example 294] | 11 | < 10 |  |  |
| Cc1cc(C(=O)N[C@@H](C)C[C@H]2CC[C@]3(CC2)OC(=O)NN=C3c2cc(OCC(F)(F)F)ccc2Br)[nH]n1 [Example 298] | 15 | < 10 |  |  |
| Cc1cc(C(=O)N[C@@H](C)C[C@H]2CC[C@]3(CC2)OC(=O)NN=C3c2ccc(C#N)cc2Br)[nH]n1 [Example 199] | 10 | < 10 |  |  |
| [2H]C([2H])([2H])NC(=O)C(=O)N[C@@H](C)C[C@]1(C#N)CC[C@@]2(CC1)OC(=O)NN=C2c1cc(F)ccc1Br [Example 2-133] |  |  | 14 | < 10 |
| COc1cc(C)c(C2=NNC(=O)O[C@]23CC[C@@H](C[C@H](C)NC(=O)N2CCn4nccc4C2)CC3)cn1 [Example 237] | 34 | < 10 |  |  |
| CNC(=O)C(=O)N[C@@H](C)C[C@H]1CC[C@]2(CC1)OC(=O)NN=C2c1cccc(Br)c1 [Example 24] | 41 | 31 |  |  |
| CNC(=O)C(=O)N[C@@H](C)C[C@H]1CC[C@]2(CC1)OC(=O)NN=C2c1cc(Br)ccc1C [Example 212] | < 10 | < 10 |  |  |
| CNC(=O)C(=O)N[C@@H](C)CC1CCC2(CC1)OC(=O)NN=C2c1ccncc1C (mixture of isomers) [Example 125] | 40 | 57 |  |  |
| CNC(=O)C(=O)N[C@@H](C)C[C@H]1CC[C@]2(CC1)OC(=O)NN=C2c1cnc(C)cc1C [Example 173] | 29 | 10 |  |  |
| C[C@@H](C[C@H]1CC[C@]2(CC1)OC(=O)NN=C2c1ccc(OC(F)(F)F)cc1Br)NC(=O)c1cc2ccccc2o1 [Example 87] | 39 | < 10 |  |  |
| C[C@@H](C[C@H]1CC[C@]2(CC1)OC(=O)NN=C2c1cccnc1)NC(=O)c1cc2cc(F)ccc2[nH]1 [Example 15] | 25 | < 10 |  |  |
